Data published in patent publication US20240140895A1, “NOVEL AROMATIC MOLECULES” (XENIOPRO GmbH, priority 2018, published 2024).

Tested on: Notch signaling (human Notch1 receptor, hNotch1ΔE)
Test: Notch reporter assay (dual luciferase, HeLa cells transfected with hNotch1ΔE)
Type: cell-based
Details: 10 μM
From the text: The activation level of Notch signaling can be quantified in vitro reliably by measuring the expression levels of Notch specific target genes. This can be accomplished by the quantification of corresponding mRNA or protein of a particular Notch target gene. Alternatively, cells can be genetically modified to carry a luciferase gene as an artificial Notch target gene, which is expressed in dependence of Notch activity. In this setting, Notch signaling levels can be quantified by measuring the luciferase-derived bioluminescence values.
An according Notch-reporter assay, i.e. a luciferase-based luminescence readout, was used here to quantify the ability of the claimed compounds to augment Notch signaling in a cellular system. […] After 24 hours of transfection, the transfected cells were carefully detached from the dish using 0.5 mM EDTA in PBS and seeded into 96-well plates suitable for luminescence readouts (CORNING, #3610) at 10,000 cells per well. […] Directly after the lysis, first the Firefly and then the Renilla luciferase values were measured consecutively from the same well with a luminescence reader immediately after applying 15 μL per well each of the corresponding enzyme substrates needed to create the luminescence signals (Promega, Dual-Luciferase® Reporter Assay System, #E1910). […]

SMILES: Oc1ccc(C=Cc2cc(O)cc(O)c2)cc1 [RES, resveratrol, reference compound]
- Activity Range: weighted arithmetic mean (AVEw) of double-normalized Notch-reporter luminescence, relative to DMSO basis level 1.0: 1.9 ± 0.5
